Patent US20260166313A1, “WIRELESS PATCH SYSTEM FOR TRANSDERMAL, TRANSMUCOSAL AND DENTAL ELECTRICAL DRUG DELIVERY” (priority 2015, published 2026)

Assay: ACEK effect (DEP, ACEO, ACET) on drug particles over the inductively powered IDE, observed by light microscopy
Assay type: physicochemical
Settings: for negative DEP (nDEP) detection / ACET effect detection: any frequency range; for negative DEP (nDEP) detection: DI water
Source text: In order to study the functionality of the patch in terms of a demodulation circuit and ACEK effect, a very simple set-up was constructed which is shown in FIG. 2C. The experimental set-up includes the dental patch, an optical microscope, AC waveform generators, a digital oscilloscope and some probe connectors. A microchamber was sealed over the IDE to hold the solution (FIG. 2C). […] The movement of particles was observed by an optical microscope NIKON ECLIPSE LV100 (Nikon Instruments, Inc., Melville, New York, United States of America) and the images from the microscope were acquired by a Roper Scientific (Tucson, Arizona, United States of America) digital camera and subsequently transferred to a computer. An AM signal with the amplitude of 10 V was applied to the primary coil. The AM signal applied to the primary coil was generated by two Agilent Arbitrary Waveform Generators (model 33220A). The carrier signal frequency was 8 MHz. The separation between primary and secondary coil is 10 mm. An Agilent Mixed Signal Oscilloscope (model MSO6012A) was used to record the demodulated signal. […] The frequency of the modulating signal was continuously swept in order to find an appropriate frequency at which ACEK effect occurs. […] The ACEK effect on Tetracycline, Acetaminophen, Benzocaine and Lidocaine was studied.

SMILES	negative DEP (nDEP) detection	ACET effect detection	frequency of maximum ACEO vortices (field 15 Vpp/mm) [KHz]	frequency of maximum ACEO vortices (field 10 Vpp/mm) [Hz]
CC(=O)Nc1ccc(O)cc1 [acetaminophen]	No negative DEP (nDEP) was detected	–	–	–
CCOC(=O)c1ccc(N)cc1 [benzocaine]	No nDEP or ACET effects were detected	No nDEP or ACET effects were detected	1	–
CCN(CC)CC(=O)Nc1c(C)cccc1C [lidocaine]	No nDEP or ACET effects were detected	No nDEP or ACET effects were detected	–	500
